Molecular target: Angiotensin-converting enzyme (Cavia porcellus)
Experiment: Concentration required for 50% inhibition of Angiotensin I converting enzyme

| SMILES | IC50 |
| --- | --- |
| Cc1ccc(S(=O)(=O)N(CC(=O)C(Cc2ccccc2)NC(=O)c2ccccc2)CC(=O)N2CCC[C@@H]2C(=O)O)cc1 (stereo not given in full) | 22000 nM |
| O=C(NC(Cc1ccccc1)C(=O)COCC(=O)N1CCC[C@@H]1C(=O)O)c1ccccc1 (stereo not given in full) | 4.4 nM |

Next, values leading:

| IC50 | SMILES |
| --- | --- |
| 12 nM | O=C(NC(Cc1ccccc1)C(=O)CSCC(=O)N1CCC[C@@H]1C(=O)O)c1ccccc1 (stereo not given in full) |
| 960 nM | O=C(NC(Cc1ccccc1)C(=O)CNCC(=O)N1CCC[C@@H]1C(=O)O)c1ccccc1 (stereo not given in full) |
| 42 nM | O=C(NC(Cc1ccccc1)C(=O)CCCC(=O)N1CCC[C@@H]1C(=O)O)c1ccccc1 (stereo not given in full) |

From ChEMBL document CHEMBL1122170, “Angiotensin converting enzyme inhibitors: modifications of a tripeptide analogue” (J Med Chem, 1982)
